Test results: the NIST ThermoML archive (doi:10.1016/j.jct.2007.11.010)
± gives the expanded uncertainty stated by the source.

Assay: xn = mol fraction of the nth substance listed
Details: 101 kPa, Liquid

OCCN1CCOCC1 [4-morpholineethanol] + CCO
mass density [kg/m3]
Details | 293.15 K | 298.15 K | 303.15 K | 313.15 K | 323.15 K
x1 = 0.0543 | 820.46 ± 0.85 | 817.03 ± 0.86 | 812.82 ± 0.87 | 804.96 ± 0.89 | 794.75 ± 0.93
x1 = 0.1127 | 851.58 ± 0.76 | 847.96 ± 0.77 | 843.64 ± 0.78 | 835.77 ± 0.81 | 824.13 ± 0.84
x1 = 0.1873 | 886.91 ± 0.66 | 883.05 ± 0.67 | 878.64 ± 0.69 | 870.75 ± 0.71 | 857.23 ± 0.75
x1 = 0.2468 | 911.75 ± 0.6 | 907.72 ± 0.61 | 903.24 ± 0.62 | 895.37 ± 0.64 | 880.63 ± 0.69
x1 = 0.2874 | 927.58 ± 0.56 | 923.45 ± 0.57 | 918.93 ± 0.58 | 911.07 ± 0.6 | –
x1 = 0.3248 | 941.14 ± 0.52 | 936.91 ± 0.53 | 932.36 ± 0.55 | 924.52 ± 0.57 | –
x1 = 0.3873 | 961.89 ± 0.47 | 957.52 ± 0.48 | 952.92 ± 0.5 | 945.11 ± 0.52 | 927.56 ± 0.57
x1 = 0.4267 | 973.69 ± 0.44 | 969.23 ± 0.46 | 964.6 ± 0.5 | 956.83 ± 0.49 | 938.98 ± 0.54
x1 = 0.4882 | 990.98 ± 0.41 | 986.4 ± 0.4 | 981.73 ± 0.43 | 974 ± 1 | 955.56 ± 0.5
x1 = 0.5237 | 1000.12 ± 0.38 | 995.47 ± 0.39 | 990.79 ± 0.41 | 983.09 ± 0.43 | 964.48 ± 0.48
x1 = 0.5894 | 1015.56 ± 0.44 | 1010.8 ± 0.4 | 1006.1 ± 0.4 | 998.46 ± 0.39 | –
x1 = 0.6422 | 1026.73 ± 0.48 | 1021.89 ± 0.46 | 1017.17 ± 0.45 | 1009.59 ± 0.42 | –
x1 = 0.6899 | 1035.93 ± 0.51 | 1031.02 ± 0.5 | 1026.29 ± 0.48 | 1018.76 ± 0.46 | 1001.11 ± 0.4
x1 = 0.7439 | 1045.49 ± 0.56 | 1040.52 ± 0.54 | 1035.78 ± 0.52 | 1028.31 ± 0.5 | 1011.45 ± 0.44
x1 = 0.7855 | 1051.94 ± 0.59 | 1046.91 ± 0.57 | 1042.18 ± 0.55 | 1034.76 ± 0.53 | 1018.98 ± 0.47
x1 = 0.8238 | 1057.63 ± 0.61 | 1052.57 ± 0.59 | 1047.83 ± 0.58 | 1040.46 ± 0.55 | 1025.59 ± 0.5
x1 = 0.8841 | 1065.21 ± 0.65 | 1060.1 ± 0.6 | 1055.37 ± 0.62 | 1048.08 ± 0.59 | 1035.44 ± 0.55
x1 = 0.9247 | 1069.51 ± 0.67 | 1064.37 ± 0.66 | 1059.65 ± 0.64 | 1052.42 ± 0.61 | 1041.71 ± 0.58
x1 = 0.9544 | 1072.49 ± 0.69 | 1067.33 ± 0.67 | 1062.62 ± 0.66 | 1055.43 ± 0.63 | 1046.13 ± 0.6
x1 = 0.9844 | 1075.58 ± 0.71 | 1070.4 ± 0.7 | 1065.69 ± 0.67 | 1058.55 ± 0.65 | 1050.45 ± 0.62
